Experimental data taken from patent US9958439B2, “Carbohydrate detection” (RICHTER LIFE SCIENCE DEVELOPMENT AB, priority 2012, dated 2018).
Like-named read-outs stand apart in the source and are kept apart here.

How the values were obtained:
[1] = for RFU change (Correlation analysis) / RFU change (Signal deviation with increasing [Carbohydrate]) / λmax change: 3 μM probe; for RFU change (Correlation analysis): probe-specific excitation λ, emission 545 nm; for RFU change (Signal deviation with increasing [Carbohydrate]) / λmax change: spectral analysis, Excitation 300-500, Emission 545; for carbohydrate can be detected and/or differentiated by the LCO: conclusion from change in signal magnitude and/or shift in λmax; for Gradient Parameters (gradient of regression line) / Linear relationship / Quality of Gradient: linear regression
In short: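 Each LCO probe at 3 μM was added to two-fold serial dilutions of carbohydrate in dH2O (10–0.039 mg/ml for β-1,3-glucan, cellulose, chitin; 5–0.019 mg/ml for the others), run in triplicate. Excitation spectra were scanned 300–500 nm with emission at 545 nm. Detection was a reproducible λmax and/or RFU shift versus negative control, with linear regression of RFU against concentration.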

[2] = In short: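 3 μM of each LCO probe was added to serial two-fold carbohydrate dilutions in water (10–0.039 or 5–0.019 mg/ml). Excitation spectra were scanned 300–500 nm with emission at 545 nm, in triplicate. Detection was defined as a reproducible shift in λmax and/or RFU versus negative control, with linear regression of RFU against concentration.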
[3] = remark: listed apart in the source
In short: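 LCO probes (3 μM) were added to serial two-fold dilutions of carbohydrate suspensions in dH2O, with excitation scanned 300–500 nm and emission at 545 nm. Detection was a reproducible λmax and/or RFU change versus no-carbohydrate control. RFU was regressed linearly against concentration at the λmax or the lowest-background excitation.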

[4] = for RFU change (Correlation analysis) / RFU change (Signal deviation with increasing [Carbohydrate]): 3 μM probe; for RFU change (Correlation analysis): probe-specific excitation λ, emission 545 nm; for RFU change (Signal deviation with increasing [Carbohydrate]): spectral analysis, Excitation 300-500, Emission 545; for Gradient Parameters (gradient of regression line) / Linear relationship / Quality of Gradient: linear regression
In short: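 LCO probes at 3 μM mixed with serial twofold carbohydrate dilutions in dH2O (10–0.039 or 5–0.019 mg/ml, depending on carbohydrate). Excitation scanned 300–500 nm, emission read at 545 nm; detection defined as reproducible shift in λmax and/or RFU relative to negative control, with linear regression of RFU against concentration.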

[5] = for RFU change (Correlation analysis): probe-specific excitation λ, emission 545 nm
In short: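 LCO probes at 3 μM mixed with serial two-fold dilutions of carbohydrate in dH2O (10–0.039 or 5–0.019 mg/ml, depending on carbohydrate), in triplicate. Excitation scanned 300–500 nm or fixed per probe (λmax or lowest background), emission at 545 nm. Detection taken as reproducible λmax/RFU shift vs no-carbohydrate control; RFU regressed linearly on concentration.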

[6] = remark: listed apart in the source
In short: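 LCO probes at 3 μM mixed with serial two-fold carbohydrate dilutions in water (10–0.039 or 5–0.019 mg/ml), run in triplicate. Excitation scanned 300–500 nm with emission at 545 nm; detection based on reproducible λmax or RFU shift against the no-carbohydrate control, with linear regression of RFU on concentration.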

[7] = β-1,3-glucan concentration vs RFU
[8] = Chondroitin Sulfate A 5-0.019 mg/ml, 3 μM probe, spectral analysis, Excitation 300-500, Emission 545
[9] = Chondroitin Sulfate A concentration vs RFU, linear regression
[10] = sodium alginate concentration vs RFU, linear regression
[11] = Cellulobiose 5-0.019 mg/ml, 3 μM probe, spectral analysis, Excitation 300-500, Emission 545
[12] = amylose concentration vs RFU, linear regression
[13] = glucose concentration vs RFU, linear regression

NCCCC[C@H](NC(=O)Cc1cc(-c2cccs2)sc1-c1ccc(-c2sc(-c3cccs3)cc2CC(=O)N[C@@H](CCCCN)C(=O)[O-])s1)C(=O)[O-].[Na+].[Na+] [pHTA-Lys, penta Hydrogen Thiophene Acetic acid Lysine]
Increases: RFU change (Correlation analysis) ([1]; Chitin 10-[…]) | RFU change (Signal deviation with increasing [Carbohydrate]) ([1]; Chitin 10-[…]) | RFU change (Correlation analysis) ([2]; Chondroitin Sulfate A 5-0.019 mg/ml, 3 μM probe, probe-specific excitation λ, emission 545 nm) | RFU change (Correlation analysis) ([3]; Sodium alginate 5-0.019 mg/ml, 3 μM probe, probe-specific excitation λ, emission 545 nm) | RFU change (Signal deviation with increasing [Carbohydrate]) ([3]; Sodium alginate 5-0.019 mg/ml, 3 μM probe, spectral analysis, Excitation 300-500, Emission 545) | RFU change (Correlation analysis) ([4]; Glycogen 5-0.019 mg/ml) | RFU change (Signal deviation with increasing [Carbohydrate]) ([4]; Glycogen 5-0.019 mg/ml) | RFU change (Correlation analysis) ([4]; Heparin 5-0.019 mg/ml) | RFU change (Signal deviation with increasing [Carbohydrate]) ([4]; Heparin 5-0.019 mg/ml) | RFU change (Correlation analysis) ([5]; Amylose 5-0.019 mg/ml, 3 μM probe) | RFU change (Signal deviation with increasing [Carbohydrate]) ([5]; Amylose 5-0.019 mg/ml, 3 μM probe, spectral analysis, Excitation 300-500, Emission 545)
No: Sensitivity ([5]; to cellulobiose) | Sensitivity ([6]; to glucose)
55.4 ± 5.3: Gradient Parameters (gradient of regression line) [3, 10]
273.8 ± 46.2: Gradient Parameters (gradient of regression line) ([1]; chitin concentration vs RFU)
Significant: Linear relationship ([1]; cellulose concentration vs RFU) | Linear relationship ([1]; chitin concentration vs RFU) | Linear relationship [2, 9] | Linear relationship [3, 10] | Linear relationship ([4]; glycogen concentration vs RFU) | Linear relationship ([4]; heparin concentration vs RFU) | Linear relationship [5, 12]
Yes: Sensitivity ([1]; to cellulose) | Sensitivity ([1]; to chitin) | Sensitivity ([1]; to β-1,3-glucan) | Sensitivity ([2]; to Chondroitin Sulfate A) | Sensitivity ([3]; to sodium alginate) | Sensitivity ([4]; to glycogen) | Sensitivity ([4]; to heparin) | Sensitivity ([5]; to amylose)
Decrease: RFU change (Signal deviation with increasing [Carbohydrate]) ([1]; β-1,3-glucan 10-[…])
291.8 ± 46.6: Gradient Parameters (gradient of regression line) ([1]; cellulose concentration vs RFU)
Redshift: λmax change ([1]; Cellulose 10-[…]) | λmax change ([1]; Chitin 10-[…])
194.8 ± 19.2: Gradient Parameters (gradient of regression line) [2, 9]
No change: λmax change [2, 8] | λmax change [5, 11]
48.4 ± 18.2: Gradient Parameters (gradient of regression line) ([4]; heparin concentration vs RFU)
can be detected and/or differentiated: carbohydrate can be detected and/or differentiated by the LCO ([1]; Cellulose) | carbohydrate can be detected and/or differentiated by the LCO ([1]; Chitin) | carbohydrate can be detected and/or differentiated by the LCO ([1]; β-1,3-Glucan) | carbohydrate can be detected and/or differentiated by the LCO ([2]; Chondroitin sulfate A, conclusion from change in signal magnitude and/or shift in λmax) | carbohydrate can be detected and/or differentiated by the LCO ([3]; Sodium alginate, conclusion from change in signal magnitude and/or shift in λmax) | carbohydrate can be detected and/or differentiated by the LCO ([4]; Glycogen, conclusion from change in signal magnitude and/or shift in λmax) | carbohydrate can be detected and/or differentiated by the LCO ([5]; Amylose, conclusion from change in signal magnitude and/or shift in λmax)
Decreases: RFU change (Signal deviation with increasing [Carbohydrate]) [2, 8]
Horizontal: Quality of Gradient ([5]; cellulobiose concentration vs RFU, linear regression) | Quality of Gradient [6, 13]
43.6 ± 7.9: Gradient Parameters (gradient of regression line) ([4]; glycogen concentration vs RFU)
107.9 ± 16.4: Gradient Parameters (gradient of regression line) [1, 7]
Increase: RFU change (Correlation analysis) ([1]; Cellulose 10-[…]) | RFU change (Signal deviation with increasing [Carbohydrate]) ([1]; Cellulose 10-[…]) | RFU change (Correlation analysis) ([1]; β-1,3-glucan 10-[…])
Unclear: RFU change (Correlation analysis) ([5]; Cellulobiose 5-0.019 mg/ml, 3 μM probe) | RFU change (Signal deviation with increasing [Carbohydrate]) [5, 11] | RFU change (Correlation analysis) ([6]; Glucose 5-0.019 mg/ml, 3 μM probe, probe-specific excitation λ, emission 545 nm) | RFU change (Signal deviation with increasing [Carbohydrate]) ([6]; Glucose 5-0.019 mg/ml, 3 μM probe, spectral analysis, Excitation 300-500, Emission 545)
Positive: Quality of Gradient ([1]; cellulose concentration vs RFU) | Quality of Gradient ([1]; chitin concentration vs RFU) | Quality of Gradient [1, 7] | Quality of Gradient [2, 9] | Quality of Gradient [3, 10] | Quality of Gradient ([4]; glycogen concentration vs RFU) | Quality of Gradient ([4]; heparin concentration vs RFU) | Quality of Gradient [5, 12]
23.6 ± 13.7: Gradient Parameters (gradient of regression line) [6, 13]
47.7 ± 18.5: Gradient Parameters (gradient of regression line) [5, 12]
